This is an account of results in patent US7960556B2, “Thiadiazole derivatives for the treatment of neuro-degenerative diseases” (NV reMYND, priority 2006, dated 2011).

For the test, the system named is α-synuclein cytotoxicity in M17-SYNwt cells. The test is described as follows: α-synuclein cytotoxicity assay: LDH leakage from paraquat-treated M17-SYNwt neuroblastoma cells.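 On all read-outs here: paraquat at 32 mM co-added with compound, 40 h exposure, LDH activity released into the culture medium measured, references are DMSO-only cells and paraquat plus DMSO cells.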 Conditions: Homo sapiens, Neuroblastoma cell; for Emax: read-out: % Inhib. For orientation: LDH in the medium is a marker of cell lysis.

Source text: An α-synuclein expression plasmid was constructed by sub-cloning the NcoI/XhoI fragment from 212T-SYN(WT) (Griffioen et al., Biochem Biophys Acta (2006) 1762(3):312-318) containing the cDNA of human wild type α-synuclein correspondingly into a standard mammalian expression vector pcDNA3.1 (Invitrogen) resulting into the plasmid pcDNA3.1-SYNwt. Plasmids pcDNA3.1 and pcDNA3.1-SYNwt were transfected to human neuroblastoma cells (ATCC No. CRL-2267) and independent clonal lines with the plasmids stably integrated into the genome were selected. […] Over-expression of α-synuclein in M17-SYNwt cell lines was confirmed by Western analysis.
Due to the high levels of α-synuclein M17-SYNwt cells are exquisitely sensitivity to paraquat, a well-known risk factor of synuclein-dependent neuronal degeneration. In degenerated or dead cells lactate dehydrogenase (LDH) is leaked out of the cells into the extracellular environment due to a loss of plasma-membrane integrity. This principle was used to determine cytotoxicity by quantifying the level of leaked LDH into the growth medium.
The detailed method for determining α-synuclein cytotoxicity was as follows: From appropriate precultures of M17 and M17-SYN cells were seeded at 50,000 cells/cm^2 in Optimem Reduced Serum without phenol red (available from InVitrogen, Cat. 31985-047) supplemented with 5% fetal calf serum, 1 mM sodium pyruvate, 1× non-essential amino acids, 500 μg/ml G418 0,5× antibiotic/antimycotic. After 3 hours of incubation at 37° C./5% CO2 paraquat was added to the cells (final concentration of 32 mM), together with the test compound and the cells were further incubated for 40 hours. Subsequently, LDH activity was determined using Promega Cytotox 96 Non-Radioactive cytotoxicity assay, (Cat. G1780) according the instructions of the supplier.
In these experiments, the control group consisted of M17-SYNwt cells treated with DMSO, the untreated paraquat group consisted of M17-SYNwt cells treated with paraquat and DMSO, and the treated paraquat group consisted of M17-SYNwt cells treated with paraquat and the test compound dissolved in DMSO.

By EC50 is commonly meant the midpoint of the concentration-response curve. Higher therefore signals weaker potency. As for `Cc1ccc(Cc2nsc(N3CCN(S(=O)(=O)c4c(C)cc(C)cc4C)C(C)C3)n2)cc1` (stereo not shown) [compound 45, 1-[2,4,6-trimethylphenylsulfonyl]-4-[3-(4-methylbenzyl)-1,2,4-thiadiazol-5-yl]-2-methylpiperazine], a half-maximal response (EC50) required 1200 nM and the Emax came to 56%.

As to `CC1CN(c2nc(Cc3ccc(F)cc3)ns2)CCN1S(=O)(=O)c1cccc(C(F)(F)F)c1` (stereo not shown) [compound 46, 1-[3-trifluorophenylsulfonyl]-4-[3-(4-fluorobenzyl)-1,2,4-thiadiazol-5-yl]-2-methylpiperazine], the response was half-maximal at 1340 nM (EC50) and the Emax was 64%.

In the case of `CC1CN(c2nc(Cc3ccc(F)cc3)ns2)CCN1S(=O)(=O)c1ccccc1` (stereo not shown) [compound 47, 1-phenylsulfonyl-4-[3-(4-fluorobenzyl)-1,2,4-thiadiazol-5-yl]-2-methylpiperazine], the Emax is 129%.

As to `CC(=O)Nc1ccc(S(=O)(=O)N2CCN(c3nc(Cc4ccc(C)cc4)ns3)CC2C)cc1` (stereo not shown) [compound 48, 1-[4-acetamidophenylsulfonyl]-4-[3-(4-methylbenzyl)-1,2,4-thiadiazol-5-yl]-2-methylpiperazine], a half-maximal effect (EC50) was put at 8.44 nM and the Emax came out at 91%.

Turning to `CC(=O)Nc1ccc(S(=O)(=O)N2CCN(c3nc(Cc4ccc(C)cc4)ns3)CC2)cc1` [compound 49, 1-[4-acetamidophenylsulfonyl]-4-[3-(4-methylbenzyl)-1,2,4-thiadiazol-5-yl]piperazine], the EC50 worked out at 0.106 nM and the Emax is 77%.

Regarding `Cc1ccc(Cc2nsc(N3CCN(S(=O)(=O)c4ccc(C)cc4)C(C)C3)n2)cc1` (stereo not shown) [compound 50, 1-[4-methylphenylsulfonyl]-4-[3-(4-methylbenzyl)-1,2,4-thiadiazol-5-yl]-2-methylpiperazine], the Emax stood at 105%.

For `COc1ccc(S(=O)(=O)N2CCN(c3nc(Cc4ccc(Cl)cc4)ns3)CC2C)cc1` (stereo not shown) [compound 51, 1-[4-methoxyphenylsulfonyl]-4-[3-(4-chlorobenzyl)-1,2,4-thiadiazol-5-yl]-2-methylpiperazine], the response was half-maximal at 1.35 nM (EC50) and the Emax was determined as 94%.

In the case of `O=S(=O)(c1ccc2ccccc2c1)N1CCN(c2nc(Cc3ccc(Cl)cc3)ns2)CC1` [compound 52, 1-[2-naphtylsulfonyl]-4-[3-(4-chlorobenzyl)-1,2,4-thiadiazol-5-yl]piperazine], the midpoint of the response, the EC50, lay at 100 nM and the Emax came out at 104%.

On to `COc1ccc(S(=O)(=O)N2CCN(c3nc(Cc4cccc(OC)c4)ns3)CC2)cc1` [compound 53, 1-[4-methoxyphenylsulfonyl]-4-[3-(3-methoxybenzyl)-1,2,4-thiadiazol-5-yl]piperazine], for which the EC50 is 1.4 nM and the Emax turned out to be 83%.

In the case of `CC1CN(c2nc(Cc3ccc(F)cc3)ns2)CCN1S(=O)(=O)c1ccc(C(C)(C)C)cc1` (stereo not shown) [compound 54, 1-[4-tert-butylphenylsulfonyl]-4-[3-(4-fluorobenzyl)-1,2,4-thiadiazol-5-yl]-2-methylpiperazine], the Emax amounted to 60%.

With `CC(=O)Nc1ccc(S(=O)(=O)N2CCN(c3nc(Cc4ccc(F)cc4)ns3)CC2C)cc1` (stereo not shown) [compound 55, 1-[4-acetamidophenylsulfonyl]-4-[3-(4-fluorobenzyl)-1,2,4-thiadiazol-5-yl]-2-methylpiperazine], the EC50 worked out at 78.1 nM and the Emax turned out to be 114%.

With `Cc1ccc(Cc2nsc(N3CCN(S(=O)(=O)c4cccc(C(F)(F)F)c4)C(C)C3)n2)cc1` (stereo not shown) [compound 56, 1-[3-trifluoromethylphenylsulfonyl]-4-[3-(4-methylbenzyl)-1,2,4-thiadiazol-5-yl]-2-methylpiperazine], the Emax is 87%.

Consider `Cc1ccc(Cc2nsc(N3CCN(S(=O)(=O)c4ccc(F)cc4)CC3)n2)cc1` [compound 57, 1-[4-fluorophenylsulfonyl]-4-[3-(4-methylbenzyl)-1,2,4-thiadiazol-5-yl]piperazine], for which the EC50 turned out to be 10.4 nM and the Emax is 88%.

Take `Cc1ccc(Cc2nsc(N3CCN(S(=O)(=O)c4ccc(F)cc4)C(C)C3)n2)cc1` (stereo not shown) [compound 58, 1-[4-fluorophenylsulfonyl]-4-[3-(4-methylbenzyl)-1,2,4-thiadiazol-5-yl]-2-methylpiperazine]: the EC50 was determined as 61 nM and the Emax turned out to be 58%.

Consider `CC1CN(c2nc(Cc3ccc(F)cc3)ns2)CCN1S(=O)(=O)c1ccc(F)cc1` (stereo not shown) [compound 59, 1-[4-fluorophenylsulfonyl]-4-[3-(4-fluorobenzyl)-1,2,4-thiadiazol-5-yl]-2-methylpiperazine], for which the Emax amounted to 42%.

Consider `COc1ccc(S(=O)(=O)N2CCN(c3nc(Cc4ccc(C)cc4)ns3)CC2C)cc1` (stereo not shown) [compound 60, 1-[4-methoxyphenylsulfonyl]-4-[3-(4-methylbenzyl)-1,2,4-thiadiazol-5-yl]-2-methylpiperazine], for which the EC50 stood at 0.033 nM and the Emax worked out at 93%.

Consider `Cc1ccc(Cc2nsc(N3CCN(S(=O)(=O)c4cccc(C(F)(F)F)c4)CC3)n2)cc1` [compound 62, 1-[3-trifluoromethylphenylsulfonyl]-4-[3-(4-methylbenzyl)-1,2,4-thiadiazol-5-yl]piperazine], for which the Emax came to 45%.

As to `Cc1ccc(S(=O)(=O)N2CCN(c3nc(Cc4ccc(Cl)cc4)ns3)CC2)cc1` [compound 63, 1-[4-methylphenylsulfonyl]-4-[3-(4-chlorobenzyl)-1,2,4-thiadiazol-5-yl]piperazine], the response was half-maximal at 80.7 nM (EC50) and the Emax amounted to 83%.

In the case of `Cc1ccc(Cc2nsc(N3CCN(S(=O)(=O)c4ccc(Br)cc4)CC3)n2)cc1` [compound 64, 1-[4-bromophenylsulfonyl]-4-[3-(4-methylbenzyl)-1,2,4-thiadiazol-5-yl]piperazine], the Emax was determined as 58%.

Turning to `Cc1ccc(Cc2nsc(N3CCN(S(=O)(=O)c4ccc5ccccc5c4)CC3)n2)cc1` [compound 65, 1-[2-naphtylsulfonyl]-4-[3-(4-methylbenzyl)-1,2,4-thiadiazol-5-yl]piperazine], the 50% effective concentration (EC50) worked out at 39.3 nM and the Emax is 78%.

On to `Cc1ccc(Cc2nsc(N3CCN(S(=O)(=O)c4ccc(Cl)cc4)CC3)n2)cc1` [compound 66, 1-[4-chlorophenylsulfonyl]-4-[3-(4-methylbenzyl)-1,2,4-thiadiazol-5-yl]piperazine], for which the Emax amounted to 81%.

As to `Cc1ccc(Cc2nsc(N3CCN(S(=O)(=O)c4ccc(C(C)(C)C)cc4)CC3)n2)cc1` [compound 67, 1-[4-tert-butylphenylsulfonyl]-4-[3-(4-methylbenzyl)-1,2,4-thiadiazol-5-yl]piperazine], the Emax came to 41%.

Take `COc1ccc(S(=O)(=O)N2CCN(c3nc(Cc4ccc(C)cc4)ns3)CC2)cc1` [compound 68, 1-[4-methoxyphenylsulfonyl]-4-[3-(4-methylbenzyl)-1,2,4-thiadiazol-5-yl]piperazine]: the EC50 came out at 0.255 nM and the Emax turned out to be 53%.

`CC(C)(C)c1ccc(S(=O)(=O)N2CCN(c3nc(Cc4ccc(Cl)cc4)ns3)CC2)cc1` [compound 69, 1-[4-tert-butylphenylsulfonyl]-4-[3-(4-chlorobenzyl)-1,2,4-thiadiazol-5-yl]piperazine]: the Emax stood at 31%.

On to `Cc1ccc(Cc2nsc(N3CCN(S(=O)(=O)c4cccc5cccnc45)CC3)n2)cc1` [compound 70, 1-[quinoline-8-sulfonyl]-4-[3-(4-methylbenzyl)-1,2,4-thiadiazol-5-yl]piperazine], for which the Emax was found to be 44%.

Consider `Cc1ccc(Cc2nsc(N3CCN(S(=O)(=O)c4ccc([N+](=O)[O-])cc4)C(C)C3)n2)cc1` (stereo not shown) [compound 71, 1-[4-nitrophenylsulfonyl]-4-[3-(4-methylbenzyl)-1,2,4-thiadiazol-5-yl]-2-methylpiperazine], for which the Emax came to 33%.

In the case of `CC1CN(c2nc(Cc3ccc(F)cc3)ns2)CCN1S(=O)(=O)c1ccc([N+](=O)[O-])cc1` (stereo not shown) [compound 73, 1-[4-nitrophenylsulfonyl]-4-[3-(4-fluorobenzyl)-1,2,4-thiadiazol-5-yl]-2-methylpiperazine], the Emax came to 33%.

In the case of `COc1ccc(S(=O)(=O)N2CCN(c3nc(Cc4ccc(F)cc4)ns3)CC2)cc1` [compound 74, 1-[4-methoxyphenylsulfonyl]-4-[3-(4-fluorobenzyl)-1,2,4-thiadiazol-5-yl]piperazine], the concentration giving a half-maximal response (EC50) stood at 0.105 nM and the Emax came to 44%.

As to `O=S(=O)(Cc1ccccc1)N1CCN(c2nc(Cc3ccc(Cl)cc3)ns2)CC1` [compound 76, 1-(benzylsulfonyl)-4-[3-(4-chlorobenzyl)-1,2,4-thiadiazol-5-yl]piperazine], the Emax came to 40%.

For `Cc1ccc(Cc2nsc(N3CCN(S(=O)(=O)Cc4ccccc4)CC3)n2)cc1` [compound 77, 1-(benzylsulfonyl)-4-[3-(4-methylbenzyl)-1,2,4-thiadiazol-5-yl]piperazine], the Emax was determined as 81%.

On to `CCCCS(=O)(=O)N1CCN(c2nc(Cc3ccc(Cl)cc3)ns2)CC1` [compound 81, 1-(butylsulfonyl)-4-[3-(4-chlorobenzyl)-1,2,4-thiadiazol-5-yl]piperazine], for which the half-maximal effective concentration (EC50) is 350 nM and the Emax is 80%.

Regarding `CCCCCCCCS(=O)(=O)N1CCN(c2nc(Cc3ccc(C)cc3)ns2)CC1` [compound 82, 1-(octylsulfonyl)-4-[3-(4-methylbenzyl)-1,2,4-thiadiazol-5-yl]piperazine], the EC50 was determined as 1580 nM and the Emax is 50%.

Take `CCCCS(=O)(=O)N1CCN(c2nc(Cc3ccc(C)cc3)ns2)CC1` [compound 83, 1-(butylsulfonyl)-4-[3-(4-methylbenzyl)-1,2,4-thiadiazol-5-yl]piperazine]: a half-maximal response (EC50) required 2640 nM and the Emax is 36%.

On to `CCS(=O)(=O)N1CCN(c2nc(Cc3ccc(Cl)cc3)ns2)CC1` [compound 84, 1-(ethylsulfonyl)-4-[3-(4-chlorobenzyl)-1,2,4-thiadiazol-5-yl]piperazine], for which the response was half-maximal at 3480 nM (EC50) and the Emax came out at 53%.

On to `Cc1ccc(Cc2nsc(N3CCN(S(=O)(=O)C(C)C)CC3)n2)cc1` [compound 85, 1-(isopropylsulfonyl)-4-[3-(4-methylbenzyl)-1,2,4-thiadiazol-5-yl]piperazine], for which the concentration for a half-maximal effect (EC50) came to 3650 nM and the Emax came to 69%.
